Source: ChEMBL document CHEMBL6134931, “Lysine-Targeted Covalent Strategy Leading to the Discovery of Novel Potent PROTAC-Based PI3Kδ Degraders” (J Med Chem, 2025)
Calls of active or inactive are those of the source. The rule behind the calls is not given here.

Experiments:
SU-DHL-6 [1] = test: Antiproliferative activity against human SU-DHL-6 cells assessed as cell growth inhibition incubated for 72 hrs by MTT assay; type: functional
SU-DHL-6 [2] = test: Inhibition of AKT phosphorylation in human SU-DHL-6 cells at 0.1 to 1 uM incubated for 24 hrs by Western blot analysis; type: cell-based; conditions: dose 0.1-1 µM
Pfeiffer = test: Antiproliferative activity against human Pfeiffer cells assessed as cell growth inhibition incubated for 72 hrs by MTT assay; type: functional
SU-DHL-6 [3] = test: Induction of autophagy in human SU-DHL-6 cells assessed as increase in LC3-II to LC3-I ratio at 1 to 100 nM incubated for 24 hrs by Western blot analysis; type: functional, cell-based; conditions: dose 1-100 nM
SU-DHL-6 [4] = test: Inhibition of AKT phosphorylation in human SU-DHL-6 cells at 1 to 10000 nM incubated for 24 hrs by Western blot analysis; type: cell-based; conditions: dose 1-10000 nM
SU-DHL-6 [5] = test: Inhibition of AKT phosphorylation in human SU-DHL-6 cells at higher concentration incubated for 24 hrs by Western blot analysis; type: cell-based
SU-DHL-6 [6] = test: Cell cycle arrest in human SU-DHL-6 cells assessed as increase in G1 phase cells incubated for 24 hrs by PI staining based flow cytometric analysis; type: functional; conditions: dose 0.01-1 µM
SU-DHL-6 [7] = test: Induction of apoptosis in human SU-DHL-6 cells assessed as late apoptotic cells at 0.1 uM incubated for 24 hrs by Annexin V-FITC/PI staining based flow cytometric analysis (reference value: 4.75 %); type: functional
SU-DHL-6 [8] = test: Induction of apoptosis in human SU-DHL-6 cells assessed as early apoptotic cells at 1 uM incubated for 24 hrs by Annexin V-FITC/PI staining based flow cytometric analysis (reference value: 2.32 %); type: functional
SU-DHL-6 [9] = test: Cell cycle arrest in human SU-DHL-6 cells assessed as increase in G1 phase cells at 0.1 uM incubated for 24 hrs by PI staining based flow cytometric analysis; type: functional
SU-DHL-6 [10] = test: Induction of apoptosis in human SU-DHL-6 cells assessed as necrotic cells at 1 uM incubated for 24 hrs by Annexin V-FITC/PI staining based flow cytometric analysis (reference value: 0.39 %); type: functional
SU-DHL-6 [11] = test: Induction of apoptosis in human SU-DHL-6 cells assessed as necrotic cells at 0.01 uM incubated for 24 hrs by Annexin V-FITC/PI staining based flow cytometric analysis (reference value: 0.39 %); type: functional
SU-DHL-6 [12] = test: Induction of apoptosis in human SU-DHL-6 cells assessed as early apoptotic cells at 0.01 uM incubated for 24 hrs by Annexin V-FITC/PI staining based flow cytometric analysis (reference value: 2.32 %); type: functional
SU-DHL-6 [13] = test: Induction of apoptosis in human SU-DHL-6 cells assessed as viable cells at 0.01 uM incubated for 24 hrs by Annexin V-FITC/PI staining based flow cytometric analysis (reference value: 92.54 %); type: functional; conditions: read-out: Activity
SU-DHL-6 [14] = test: Induction of apoptosis in human SU-DHL-6 cells assessed as necrotic cells at 0.1 uM incubated for 24 hrs by Annexin V-FITC/PI staining based flow cytometric analysis (reference value: 0.39 %); type: functional
SU-DHL-6 [15] = test: Induction of apoptosis in human SU-DHL-6 cells assessed as viable cells at 1 uM incubated for 24 hrs by Annexin V-FITC/PI staining based flow cytometric analysis (reference value: 92.54 %); type: functional; conditions: read-out: Activity
SU-DHL-6 [16] = test: Induction of apoptosis in human SU-DHL-6 cells assessed as late apoptotic cells at 1 uM incubated for 24 hrs by Annexin V-FITC/PI staining based flow cytometric analysis (reference value: 4.75 %); type: functional
SU-DHL-6 [17] = test: Induction of apoptosis in human SU-DHL-6 cells assessed as late apoptotic cells at 0.01 uM incubated for 24 hrs by Annexin V-FITC/PI staining based flow cytometric analysis (reference value: 4.75 %); type: functional
SU-DHL-6 [18] = test: Induction of apoptosis in human SU-DHL-6 cells assessed as early apoptotic cells at 0.1 uM incubated for 24 hrs by Annexin V-FITC/PI staining based flow cytometric analysis (reference value: 2.32 %); type: functional
SU-DHL-6 [19] = test: Induction of apoptosis in human SU-DHL-6 cells assessed as viable cells at 0.1 uM incubated for 24 hrs by Annexin V-FITC/PI staining based flow cytometric analysis (reference value: 92.54 %); type: functional; conditions: read-out: Activity

| GI50 (SU-DHL-6 [1]) [nM] | SMILES | inhibition (SU-DHL-6 [2]) | GI50 (Pfeiffer) [nM] | also measured |
| --- | --- | --- | --- | --- |
| > 10000 | COc1ncc(-c2ccc3ncnc(N[C@H]4CCN(C(=O)CCCCC(=O)Nc5cccc6c5CN(C5CCC(=O)NC5=O)C6=O)C4)c3c2)cc1C#N (some centres not stated) | inactive | – | – |
| 760 | COc1ncc(-c2ccc3ncnc(N[C@H]4CCN(C(=O)C5CCN(CCCCCCCC(=O)N[C@H](C(=O)N6C[C@H](O)C[C@H]6C(=O)NCc6ccc(-c7scnc7C)cc6)C(C)(C)C)CC5)C4)c3n2)cc1C(=O)Oc1ccccc1 | Active | 770 | – |
| 1370 | COc1ncc(-c2ccc3ncnc(N[C@H]4CCN(CCCCCCCCC(=O)N[C@H](C(=O)N5C[C@H](O)C[C@H]5C(=O)NCc5ccc(-c6scnc6C)cc5)C(C)(C)C)C4)c3n2)cc1C(=O)Oc1ccccc1 | Active | 1250 | – |
| 2480 | COc1ncc(-c2ccc3ncnc(N[C@H]4CCN(CCCCCCCCCC(=O)N[C@H](C(=O)N5C[C@H](O)C[C@H]5C(=O)NCc5ccc(-c6scnc6C)cc5)C(C)(C)C)C4)c3n2)cc1C(=O)Oc1ccccc1 | Active | 1370 | – |
| > 10000 | COc1ncc(-c2ccc3ncnc(N[C@H]4CCN(C(=O)CCCCCCC(=O)N[C@H](C(=O)N5C[C@H](O)C[C@H]5C(=O)NCc5ccc(-c6scnc6C)cc5)C(C)(C)C)C4)c3c2)cc1C#N | inactive | – | – |
| 1230 | COc1ncc(-c2ccc3ncnc(N[C@H]4CCN(CCCCCCC(=O)N[C@H](C(=O)N5C[C@H](O)C[C@H]5C(=O)NCc5ccc(-c6scnc6C)cc5)C(C)(C)C)C4)c3n2)cc1C(=O)Oc1ccccc1 | Active | 1410 | – |
| 180 | COc1ncc(-c2ccc3ncnc(N[C@H]4CCN(C(=O)C5CCN(CCCCCCCCCCC(=O)N[C@H](C(=O)N6C[C@H](O)C[C@H]6C(=O)NCc6ccc(-c7scnc7C)cc6)C(C)(C)C)CC5)C4)c3n2)cc1C(=O)Oc1ccccc1 | Active | 340 | Activity (SU-DHL-6 [3]): Active; inhibition (SU-DHL-6 [4]): Active |
| > 10000 | COc1ncc(-c2ccc3ncnc(N[C@H]4CCN(C(=O)CCCCCC(=O)Nc5cccc6c5CN(C5CCC(=O)NC5=O)C6=O)C4)c3c2)cc1C#N (some centres not stated) | inactive | – | – |
| 480 | COc1ncc(-c2ccc3ncnc(N[C@H]4CCN(C(=O)C5CCN(CCCCCCCCCCCCC(=O)N[C@H](C(=O)N6C[C@H](O)C[C@H]6C(=O)NCc6ccc(-c7scnc7C)cc6)C(C)(C)C)CC5)C4)c3n2)cc1C(=O)Oc1ccccc1 | Active | 1060 | – |
| > 10000 | COc1ncc(-c2ccc3ncnc(N[C@H]4CCN(C(=O)CCC(=O)NCC(=O)Nc5cccc6c5CN(C5CCC(=O)NC5=O)C6=O)C4)c3c2)cc1C#N (some centres not stated) | inactive | – | – |
| 490 | COc1ncc(-c2ccc3ncnc(N[C@H]4CCN(C(=O)C5CCN(CCCCCCCCCC(=O)Nc6cccc7c6CN(C6CCC(=O)NC6=O)C7=O)CC5)C4)c3n2)cc1C(=O)Oc1ccccc1 (some centres not stated) | Active | > 10000 | – |
| 2470 | COc1ncc(-c2ccc3ncnc(N[C@H]4CCN(C(=O)C5CCN(CCCCCC(=O)N[C@H](C(=O)N6C[C@H](O)C[C@H]6C(=O)NCc6ccc(-c7scnc7C)cc6)C(C)(C)C)CC5)C4)c3n2)cc1C(=O)Oc1ccccc1 | Active | > 10000 | – |
| 900 | COc1ncc(-c2ccc3ncnc(N[C@H]4CCN(CCCCCCCC(=O)N[C@H](C(=O)N5C[C@H](O)C[C@H]5C(=O)NCc5ccc(-c6scnc6C)cc5)C(C)(C)C)C4)c3n2)cc1C(=O)Oc1ccccc1 | Active | 1280 | – |
| > 10000 | COc1ncc(-c2ccc3ncnc(N[C@H]4CCN(C(=O)CCC(=O)NCCCCCC(=O)Nc5cccc6c5CN(C5CCC(=O)NC5=O)C6=O)C4)c3c2)cc1C#N (some centres not stated) | inactive | – | – |
| 900 | COc1ncc(-c2ccc3ncnc(N[C@H]4CCN(C(=O)C5CCN(CCCCCCCCCC(=O)N[C@H](C(=O)N6C[C@H](O)C[C@H]6C(=O)N[C@@H](C)c6ccc(-c7scnc7C)cc6)C(C)(C)C)CC5)C4)c3n2)cc1C(=O)Nc1ccccc1 | – | – | inhibition (SU-DHL-6 [5]): Active |
| 2630 | COc1ncc(-c2ccc3ncnc(N[C@H]4CCN(C(=O)C5CCN(CCCCCCC(=O)N[C@H](C(=O)N6C[C@H](O)C[C@H]6C(=O)NCc6ccc(-c7scnc7C)cc6)C(C)(C)C)CC5)C4)c3n2)cc1C(=O)Oc1ccccc1 | Active | 2960 | – |
| > 10000 | COc1ncc(-c2ccc3ncnc(N[C@H]4CCN(C(=O)CCC(=O)NCCOCCOCC(=O)Nc5cccc6c5CN(C5CCC(=O)NC5=O)C6=O)C4)c3c2)cc1C#N (some centres not stated) | inactive | – | – |
| > 10000 | COc1ncc(-c2ccc3ncnc(N[C@H]4CCN(C(=O)CCC(=O)NCCCC(=O)Nc5cccc6c5CN(C5CCC(=O)NC5=O)C6=O)C4)c3c2)cc1C#N (some centres not stated) | inactive | – | – |
| 400 | COc1ncc(-c2ccc3ncnc(N[C@H]4CCN(C(=O)C5CCN(CCCCCCCCCCCC(=O)N[C@H](C(=O)N6C[C@H](O)C[C@H]6C(=O)NCc6ccc(-c7scnc7C)cc6)C(C)(C)C)CC5)C4)c3n2)cc1C(=O)Oc1ccccc1 | Active | 1940 | – |
| > 10000 | COc1ncc(-c2ccc3ncnc(N[C@H]4CCN(C(=O)CCC(=O)NCCC(=O)Nc5cccc6c5CN(C5CCC(=O)NC5=O)C6=O)C4)c3c2)cc1C#N (some centres not stated) | inactive | – | – |
| 200 | COc1ncc(-c2ccc3ncnc(N[C@H]4CCN(C(=O)C5CCN(CCCCCCCCCC(=O)N[C@H](C(=O)N6C[C@H](O)C[C@H]6C(=O)NCc6ccc(-c7scnc7C)cc6)C(C)(C)C)CC5)C4)c3n2)cc1C(=O)Oc1ccccc1 | Active | 370 | Activity (SU-DHL-6 [6]): Dose-dependent-effect; Activity (SU-DHL-6 [7]): 7.29%; Activity (SU-DHL-6 [8]): 1.16%; Activity (SU-DHL-6 [9]): Active; More Potent Than 10 Um Idelalisib; Activity (SU-DHL-6 [3]): Active; Activity (SU-DHL-6 [10]): 5.5%; Activity (SU-DHL-6 [11]): 0.11%; Activity (SU-DHL-6 [12]): 2.73%; viability at 0.01 µM (SU-DHL-6 [13]): 92.4%; Activity (SU-DHL-6 [14]): 0.31%; viability at 1 µM (SU-DHL-6 [15]): 20.4%; Activity (SU-DHL-6 [16]): 72.97%; Activity (SU-DHL-6 [17]): 4.79%; Activity (SU-DHL-6 [18]): 2.29%; inhibition (SU-DHL-6 [4]): Active; viability at 0.1 µM (SU-DHL-6 [19]): 90.1% |
| 300 | COc1ncc(-c2ccc3ncnc(N[C@H]4CCN(C(=O)C5CCN(C(=O)CCCCCCCCCN[C@H](C(=O)N6C[C@H](O)C[C@H]6C(=O)NCc6ccc(-c7scnc7C)cc6)C(C)(C)C)CC5)C4)c3n2)cc1C(=O)Oc1ccccc1 | Active | > 10000 | – |
| 870 | COc1ncc(-c2ccc3ncnc(N[C@H]4CCN(C(=O)C5CCN(CCCCCCCCCC(=O)N[C@H](C(=O)N6C[C@@H](O)C[C@H]6C(=O)N[C@@H](C)c6ccc(-c7scnc7C)cc6)C(C)(C)C)CC5)C4)c3n2)cc1C(=O)Oc1ccccc1 | – | – | inhibition (SU-DHL-6 [5]): Active |
| > 10000 | COc1ncc(-c2ccc3ncnc(N[C@H]4CCN(C(=O)CCCCCCC(=O)Nc5cccc6c5CN(C5CCC(=O)NC5=O)C6=O)C4)c3c2)cc1C#N (some centres not stated) | inactive | – | – |
| 730 | COc1ncc(-c2ccc3ncnc(N[C@H]4CCN(C(=O)C5CCN(CCCCCCCCC(=O)N[C@H](C(=O)N6C[C@H](O)C[C@H]6C(=O)NCc6ccc(-c7scnc7C)cc6)C(C)(C)C)CC5)C4)c3n2)cc1C(=O)Oc1ccccc1 | Active | 600 | – |
